Experimental data from ChEMBL document CHEMBL1201862, “PubChem BioAssay data set” (2004).
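Compound exposure: 48 hours, 5 concentrations, 96-well plates. GI50: concentration for 50% inhibition of growth.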 Active and inactive are the calls of the source. Cut-off read from the data, not from the text of the source: active = GI50 up to about 1.1 µM and inactive = higher.

Tests used:
Assay in all cases: growth of human tumour cells (NCI), 48 h
[1] = test system: SK-MEL-5
[2] = test system: MDA-N
[3] = test system: HL-60
[4] = test system: UO-31
[5] = test system: SK-MEL-28
[6] = test system: SNB-75
[7] = test system: MOLT-4
[8] = test system: SF-539
[9] = test system: IGROV-1
[10] = test system: NCI-H23
[11] = test system: SN12C
[12] = test system: OVCAR-8
[13] = test system: NCI-H460
[14] = test system: ACHN
[15] = test system: 786-0
[16] = test system: LOX IMVI
[17] = test system: HOP-92
[18] = test system: T47D
[19] = test system: HOP-62
[20] = test system: RXF 393
[21] = test system: NCI-H226
[22] = test system: CAKI-1
[23] = test system: SNB-19
[24] = test system: A498
[25] = test system: RPMI-8226
[26] = test system: OVCAR-3
[27] = test system: HCT-116
[28] = test system: Hs-578T
[29] = test system: SF-268
[30] = test system: SK-OV-3
[31] = test system: NCI/ADR-RES
[32] = test system: U-251
[33] = test system: PC-3
[34] = test system: SW-620
[35] = test system: SK-MEL-2
[36] = test system: KM12
[37] = test system: COLO 205
[38] = test system: UACC-62
[39] = test system: SR
[40] = test system: A549
[41] = test system: OVCAR-4
[42] = test system: EKVX
[43] = test system: BT-549
[44] = test system: NCI-H522
[45] = test system: HCC 2998
[46] = test system: TK-10
[47] = test system: HT-29
[48] = test system: M14
[49] = test system: HCT-15
[50] = test system: MDA-MB-231
[51] = test system: UACC-257
[52] = test system: DU-145
[53] = test system: OVCAR-5
[54] = test system: MDA-MB-435
[55] = test system: SF-295
[56] = test system: MCF7
[57] = test system: Malme-3M
[58] = test system: CCRF-CEM
[59] = test system: K562

## O=C(/C=C/c1ccccc1)Oc1cccc(Br)c1
[1]
  GI50: 55.3 µM (inactive)
[2]
  GI50: 96.6 µM (inactive)
[3]
  GI50: 18.1 µM (inactive)
[4]
  GI50: 52.8 µM (inactive)
[5]
  GI50: > 100 µM (inactive)
[6]
  GI50: 45.3 µM (inactive)
[7]
  GI50: 11.6 µM (inactive)
[8]
  GI50: 39.9 µM (inactive)
[9]
  GI50: 17.7 µM (inactive)
[10]
  GI50: > 100 µM (inactive)
[11]
  GI50: > 100 µM (inactive)
[12]
  GI50: 60.4 µM (inactive)
[13]
  GI50: > 100 µM (inactive)
[14]
  GI50: > 100 µM (inactive)
[15]
  GI50: > 100 µM (inactive)
[16]
  GI50: 29.7 µM (inactive)
[17]
  GI50: 91 µM (inactive)
[18]
  GI50: 53.3 µM (inactive)
[19]
  GI50: > 100 µM (inactive)
[20]
  GI50: 56.8 µM (inactive)
[21]
  GI50: > 100 µM (inactive)
[22]
  GI50: 48.6 µM (inactive)
[23]
  GI50: 31.7 µM (inactive)
[24]
  GI50: 61.8 µM (inactive)
[25]
  GI50: 14.1 µM (inactive)
[26]
  GI50: 78.2 µM (inactive)
[27]
  GI50: 25.6 µM (inactive)
[28]
  GI50: 16.6 µM (inactive)
[29]
  GI50: 24.3 µM (inactive)
[30]
  GI50: > 100 µM (inactive)
[31]
  GI50: 60.1 µM (inactive)
[32]
  GI50: 29.5 µM (inactive)
[33]
  GI50: 93.1 µM (inactive)
[34]
  GI50: 44.2 µM (inactive)
[35]
  GI50: > 100 µM (inactive)
[36]
  GI50: 31.8 µM (inactive)
[37]
  GI50: 64.1 µM (inactive)
[38]
  GI50: 74 µM (inactive)
[39]
  GI50: 23.4 µM (inactive)
[40]
  GI50: 69.8 µM (inactive)
[41]
  GI50: 93.8 µM (inactive)
[42]
  GI50: 48.3 µM (inactive)
[43]
  GI50: > 100 µM (inactive)
[44]
  GI50: 5.68 µM (inactive)
[45]
  GI50: 35.7 µM (inactive)
[46]
  GI50: > 100 µM (inactive)
[47]
  GI50: 30.5 µM (inactive)
[48]
  GI50: 78.7 µM (inactive)
[49]
  GI50: 18.2 µM
[50]
  GI50: > 100 µM (inactive)
[51]
  GI50: > 100 µM (inactive)
[52]
  GI50: 89.9 µM (inactive)
[53]
  GI50: > 100 µM (inactive)
[54]
  GI50: > 100 µM (inactive)
[55]
  GI50: 24.4 µM (inactive)
[56]
  GI50: 20.5 µM (inactive)

## CCCCCCCCCC[C@H](O)[C@H]1CC[C@@H]([C@@H](O)CC[C@H](O)[C@@H]2CCC(CCCCCCC[C@@H](O)CC3=C[C@H](C)OC3=O)O2)O1 (stereo partly specified)
[1]
  GI50: 1.5 µM (inactive)
[2]
  GI50: 2.43 µM (inactive)
[3]
  GI50: 1.44 µM (inactive)
[4]
  GI50: 0.00416 µM (active)
[5]
  GI50: 1.93 µM (inactive)
[6]
  GI50: 2.47 µM (inactive)
[7]
  GI50: 2.92 µM (inactive)
[8]
  GI50: 1.79 µM (inactive)
[9]
  GI50: 1.78 µM (inactive)
[10]
  GI50: 1.31 µM (inactive)
[11]
  GI50: 2.94 µM (inactive)
[12]
  GI50: 1.95 µM (inactive)
[13]
  GI50: 1.86 µM (inactive)
[14]
  GI50: 1.21 µM (inactive)
[15]
  GI50: 1.79 µM (inactive)
[16]
  GI50: 0.212 µM (active)
[57]
  GI50: 3.4 µM (inactive)
[17]
  GI50: 1.02 µM (active)
[18]
  GI50: 3.08 µM (inactive)
[19]
  GI50: 1.65 µM (inactive)
[20]
  GI50: 2.66 µM (inactive)
[21]
  GI50: 1.57 µM (inactive)
[22]
  GI50: 3.22 µM (inactive)
[23]
  GI50: 1.61 µM (inactive)
[24]
  GI50: 3.16 µM (inactive)
[25]
  GI50: 2.52 µM (inactive)
[26]
  GI50: 1.35 µM (inactive)
[27]
  GI50: 1.16 µM (inactive)
[28]
  GI50: 1.81 µM (inactive)
[29]
  GI50: 1.85 µM (inactive)
[31]
  GI50: 1.34 µM (inactive)
[58]
  GI50: 1.11 µM (active)
[32]
  GI50: 1.97 µM (inactive)
[33]
  GI50: 1.57 µM (inactive)
[34]
  GI50: 1.69 µM (inactive)
[35]
  GI50: 1.39 µM (inactive)
[36]
  GI50: 1.53 µM (inactive)
[37]
  GI50: 2.37 µM (inactive)
[38]
  GI50: 1.02 µM (active)
[39]
  GI50: 2.05 µM (inactive)
[59]
  GI50: 1.37 µM (inactive)
[40]
  GI50: 1.77 µM (inactive)
[41]
  GI50: 4.4 µM (inactive)
[42]
  GI50: 1.89 µM (inactive)
[43]
  GI50: 5.08 µM (inactive)
[44]
  GI50: 3.7 µM (inactive)
[45]
  GI50: 4.33 µM (inactive)
[46]
  GI50: 1.59 µM (inactive)
[47]
  GI50: 1.73 µM (inactive)
[48]
  GI50: 1.5 µM (inactive)
[49]
  GI50: 3.64 µM
[50]
  GI50: 2.62 µM (inactive)
[51]
  GI50: 0.115 µM (active)
[52]
  GI50: 3.6 µM (inactive)
[53]
  GI50: 3.49 µM (inactive)
[54]
  GI50: 1.33 µM (inactive)
[55]
  GI50: 1.73 µM (inactive)
[56]
  GI50: 1.49 µM (inactive)

## CCN(CC)C(=S)SNc1ccc(S(N)(=O)=O)cc1
[1]
  GI50: 30.5 µM (inactive)
[2]
  GI50: 69.3 µM (inactive)
[3]
  GI50: 0.064 µM (active)
[4]
  GI50: 33.2 µM (inactive)
[5]
  GI50: 33.4 µM (inactive)
[6]
  GI50: > 72.9 µM (inactive)
[7]
  GI50: 0.789 µM (active)
[8]
  GI50: > 76.6 µM (inactive)
[9]
  GI50: 2.11 µM (inactive)
[10]
  GI50: > 100 µM (inactive)
[11]
  GI50: 68.1 µM (inactive)
[12]
  GI50: 23.3 µM (inactive)
[13]
  GI50: 38.7 µM (inactive)
[14]
  GI50: 45.1 µM (inactive)
[15]
  GI50: 29.9 µM (inactive)
[16]
  GI50: 38.9 µM (inactive)
[57]
  GI50: 42.1 µM (inactive)
[17]
  GI50: > 56.2 µM (inactive)
[18]
  GI50: 91.6 µM (inactive)
[19]
  GI50: 69.8 µM (inactive)
[20]
  GI50: 44.4 µM (inactive)
[21]
  GI50: > 100 µM (inactive)
[22]
  GI50: 36.8 µM (inactive)
[23]
  GI50: > 83.4 µM (inactive)
[24]
  GI50: > 100 µM (inactive)
[25]
  GI50: 20.2 µM (inactive)
[27]
  GI50: 47.3 µM (inactive)
[28]
  GI50: > 100 µM (inactive)
[29]
  GI50: > 75.7 µM (inactive)
[30]
  GI50: > 100 µM (inactive)
[31]
  GI50: > 83.6 µM (inactive)
[32]
  GI50: 50.4 µM (inactive)
[33]
  GI50: 47.8 µM (inactive)
[34]
  GI50: 13.7 µM (inactive)
[35]
  GI50: > 63.1 µM (inactive)
[36]
  GI50: > 71.6 µM (inactive)
[37]
  GI50: 68.7 µM (inactive)
[38]
  GI50: > 100 µM (inactive)
[39]
  GI50: 33.2 µM (inactive)
[59]
  GI50: > 100 µM (inactive)
[40]
  GI50: 74.6 µM (inactive)
[41]
  GI50: > 83 µM (inactive)
[42]
  GI50: > 100 µM (inactive)
[43]
  GI50: 67.8 µM (inactive)
[44]
  GI50: 0.0755 µM (active)
[45]
  GI50: > 100 µM (inactive)
[46]
  GI50: > 100 µM (inactive)
[47]
  GI50: 24.6 µM (inactive)
[48]
  GI50: 24.5 µM (inactive)
[49]
  GI50: > 77.4 µM
[50]
  GI50: 60.5 µM (inactive)
[51]
  GI50: > 100 µM (inactive)
[52]
  GI50: > 92.9 µM (inactive)
[53]
  GI50: 28.4 µM (inactive)
[54]
  GI50: > 57.7 µM (inactive)
[55]
  GI50: > 66.5 µM (inactive)
[56]
  GI50: 0.0383 µM (active)
